One compound from patent US20120219496A1, “GADOLINIUM-LINKED NANOCLUSTERS” (priority 2009, published 2012) can be followed below.

The nature of this series: R1 relaxivity determination (T1 relaxometry, slope of 1/T1 vs. Gd concentration). Type of series: physicochemical. Conditions: 1.41 T (60 MHz), 40° C. The method, then: Instrumentation. Dynamic light scattering (DLS) measurements were performed on a Zetasizer Nano from Malvern Instruments. The scattering angle was held constant at 90°. Microscopy measurements were performed on an Olympus IX 81 motorized inverted fluorescence microscope equipped with an Andor DU897 EMCCD, an X-Cite 120 excitation source (EXFO) and Sutter excitation and emission filter wheels. Image of FITC was acquired using the filter set HQ480/40, HQ535/50, Q505LP. Filter set was purchased from Chroma. Tl-relaxation times were determined using a Bruker mq60 MR relaxometer operating at 1.41 T (60 MHz). ICP-AES was performed by VHG Laboratories (Manchester, N.H.). Transmission electron microscopy (TEM) was performed with a JEOL 2010 electron microscope operated at 80 kV.
To assess the paramagnetic properties of the Gd-conjugated DNCs, the amount of Gd within the sample was determined by inductively coupled plasma atomic emission spectroscopy (ICP-AES). Tl-relaxation times were determined using a Bruker mq60 MR relaxometer operating at 1.41 T (60 MHz) and at 40° C. […] It is likely that only a marginal increase in R1 was observed, despite the larger size of DNCs, due to the “saturation” of ion relaxivity, which has also previously been reported for high generation dendrimers. As a point of comparison, Gd-DTPA was determined to have an R1 of 3.9 mM^−1 s^−1 per Gd.

As to `O=C([O-])CN(CCN(CC(=O)[O-])CC(=O)O)CCN(CC(=O)[O-])CC(=O)O.[Gd+3]` [Gd-DTPA], the “R1 relaxivity per Gd” value amounted to 3.9 mM⁻¹ s⁻¹.
